Here are results for four molecules from US20070093483A1, “Use of derivatives of 2, 4-dihydro-[1,2,4] triazole-3-thione as inhibitors of the enzyme myeloperoxidase (mpo)” (ASTRAZENECA AB, priority 2003, published 2007).

The structures appear in SMILES notation.

The target in the test is T1, human MPO (Homo sapiens, UniProt P05164).
T1 sequence (P05164 49-745): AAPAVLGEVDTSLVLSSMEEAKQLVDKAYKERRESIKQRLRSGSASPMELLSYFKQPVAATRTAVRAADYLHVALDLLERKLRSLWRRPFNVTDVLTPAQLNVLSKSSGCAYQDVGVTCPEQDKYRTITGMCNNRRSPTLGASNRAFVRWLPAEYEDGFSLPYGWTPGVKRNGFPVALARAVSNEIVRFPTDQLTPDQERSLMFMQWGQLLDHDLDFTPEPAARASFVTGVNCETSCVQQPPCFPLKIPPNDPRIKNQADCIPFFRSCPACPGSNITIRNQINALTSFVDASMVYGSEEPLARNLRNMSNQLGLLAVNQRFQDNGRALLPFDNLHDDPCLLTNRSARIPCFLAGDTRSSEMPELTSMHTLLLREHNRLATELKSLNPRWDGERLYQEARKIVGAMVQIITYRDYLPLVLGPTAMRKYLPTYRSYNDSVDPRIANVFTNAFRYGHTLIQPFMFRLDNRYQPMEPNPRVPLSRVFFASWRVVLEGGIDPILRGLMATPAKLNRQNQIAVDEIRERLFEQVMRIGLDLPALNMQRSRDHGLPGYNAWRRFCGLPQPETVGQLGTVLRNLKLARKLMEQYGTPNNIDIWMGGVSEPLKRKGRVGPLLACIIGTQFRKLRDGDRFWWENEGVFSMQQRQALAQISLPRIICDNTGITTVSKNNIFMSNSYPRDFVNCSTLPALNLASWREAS
Put plainly: MPO inhibition screen (TMB oxidation, absorbance), with or without added tyrosine. Particulars: in the presence of tyrosine (final 8 uM); human MPO 2.5 nM; H2O2 100 μM; pH 6.5. The class given is biochemical. On the procedure: Methods for the determination of MPO inhibitory activity are disclosed in co-pending patent application WO 02/090575. The pharmacological activity of compounds according to the invention was tested in the following screen in which the compounds were either tested alone or in the presence of added tyrosine:
Assay buffer: 20 mM sodium/potassium phosphate buffer pH 6.5 containing 10 mM taurine and 100 mM NaCl.
Developing reagent: 2 mM 3,3 ′,5,5′-tetramethylbenzidine (TMB), 200 μM KI, 200 mM acetate buffer pH 5.4 with 20% DNF.
To 10 μl of diluted compounds in assay buffer, 40 μl of human MPO (final concentration 2.5 nM), with or without 20 μM tyrosine (final concentration, if present, 8 uM), was added and the mixture was incubated for 10 minutes at ambient temperature. Then 50 μl of H2O2 (final concentration 100 μM), or assay buffer alone as a control, were added. After incubation for 10 minutes at ambient temperature, the reaction was stopped by adding 10 μl 0.2 mg/ml of catalase (final concentration 18 μg/ml). The reaction mixture was left for an additional 5 minutes before 100 μl of TMB developing reagent was added. The amount of oxidised 3,3′,5,5′-tetramethylbenzidine formed was then measured after about 5 minutes using absorbance spectroscopy at about […]. IC50 values were then determined using standard procedures.

With `Fc1ccc(-n2c(Cc3ccccc3Cl)n[nH]c2=S)cc1` [Example 29, 5-(2-Chlorobenzyl)-4-(4-fluorophenyl)-2,4-dihydro-[1,2,4]triazole-3-thione], the half-maximal inhibitory concentration (IC50) is 3.9 µM. Take `OCC(c1ccccc1)c1n[nH]c(=S)n1-c1ccccc1` (stereo not shown) [Example 57, 5-(2-Hydroxy-1-phenylethyl)-4-phenyl-2,4-dihydro-[1,2,4]triazole-3-thione]: the IC50 amounted to 23.6 µM. In the case of `COc1ccc(OCc2n[nH]c(=S)n2CC2CCCO2)cc1` (stereo not shown) [Example 20, 5-(4-Methoxyphenoxymethyl)-4-(2-tetrahydrofuran-2-yl-methyl)-2,4-dihydro-[1,2,4]triazole-3-thione], the half-inhibitory concentration (IC50) was determined as 11.3 µM. The figure for `Cc1ccccc1-n1c(Cc2c[nH]c3ccccc23)n[nH]c1=S` [Example 74, 5-(1H-Indol-3-ylmethyl)-4-(2-methylphenyl)-2,4-dihydro-[1,2,4]triazole-3-thione] is 7.2 µM.
